In the assay the target is T1, α4β1 integrin (Homo sapiens, UniProt P05556+P13612).
T1 construct: endogenous in cells; host or cells: Ramos cells
The assay is described as follows: Adhesion of calcein-labeled Ramos cells to CS1 (fibronectin) peptide conjugated ovalbumin. Type of assay: cell-based. Particulars: Ramos cell adhesion to CS1 conjugated ovalbumin. The method, boiled down: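 Calcein AM-labelled Ramos cells (2.5×10^5/well) with compound, up to 100 μM, added to plates coated with CS1 peptide–ovalbumin (0.5 μg/ml) and blocked with 3% BSA. Binding buffer TBS pH 7.5 with 1 mM each MgCl2, CaCl2, MnCl2; 30 min, 37 °C. After washes, adherent cells lysed and read fluorometrically; […].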

Setting [1] is: Table 7, dose required to give 50% inhibition.
Where [2] appears, read: Table 5, dose required to give 50% inhibition.

IC50 data for 27 molecules are collected here from patent publication US6972296B2, “Carboxylic acid derivatives that inhibit the binding of integrins to their receptors” (Encysive Pharmaceuticals Inc., priority 1999, dated 2005).

pIC50: −log10 of the molar value.

T1 sequence (P13612 34-1032): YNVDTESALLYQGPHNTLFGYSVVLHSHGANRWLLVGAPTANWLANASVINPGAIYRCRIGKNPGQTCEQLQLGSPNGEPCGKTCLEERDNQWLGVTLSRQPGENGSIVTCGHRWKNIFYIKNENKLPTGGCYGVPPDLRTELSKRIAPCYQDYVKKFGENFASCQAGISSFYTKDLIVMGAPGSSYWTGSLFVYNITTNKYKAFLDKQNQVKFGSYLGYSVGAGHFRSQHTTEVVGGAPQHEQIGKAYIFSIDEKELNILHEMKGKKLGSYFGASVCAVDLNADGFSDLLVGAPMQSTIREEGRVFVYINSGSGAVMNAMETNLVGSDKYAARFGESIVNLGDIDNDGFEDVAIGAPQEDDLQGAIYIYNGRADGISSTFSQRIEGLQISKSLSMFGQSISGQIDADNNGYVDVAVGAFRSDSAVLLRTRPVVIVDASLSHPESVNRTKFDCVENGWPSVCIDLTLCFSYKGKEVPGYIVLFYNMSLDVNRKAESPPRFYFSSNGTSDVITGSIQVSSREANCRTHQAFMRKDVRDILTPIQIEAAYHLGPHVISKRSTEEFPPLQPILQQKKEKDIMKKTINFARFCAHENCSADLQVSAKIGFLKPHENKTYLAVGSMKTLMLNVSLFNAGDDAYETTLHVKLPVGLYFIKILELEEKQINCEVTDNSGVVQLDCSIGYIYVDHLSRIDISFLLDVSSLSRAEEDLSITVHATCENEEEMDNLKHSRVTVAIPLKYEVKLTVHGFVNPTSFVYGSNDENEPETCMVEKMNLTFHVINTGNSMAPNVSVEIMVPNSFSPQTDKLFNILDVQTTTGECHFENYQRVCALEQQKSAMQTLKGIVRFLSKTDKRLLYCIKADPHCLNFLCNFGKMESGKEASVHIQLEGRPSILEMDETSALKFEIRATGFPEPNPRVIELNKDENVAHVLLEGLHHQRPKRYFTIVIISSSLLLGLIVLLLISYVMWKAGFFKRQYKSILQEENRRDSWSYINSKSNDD
T1 sequence (P05556 21-798): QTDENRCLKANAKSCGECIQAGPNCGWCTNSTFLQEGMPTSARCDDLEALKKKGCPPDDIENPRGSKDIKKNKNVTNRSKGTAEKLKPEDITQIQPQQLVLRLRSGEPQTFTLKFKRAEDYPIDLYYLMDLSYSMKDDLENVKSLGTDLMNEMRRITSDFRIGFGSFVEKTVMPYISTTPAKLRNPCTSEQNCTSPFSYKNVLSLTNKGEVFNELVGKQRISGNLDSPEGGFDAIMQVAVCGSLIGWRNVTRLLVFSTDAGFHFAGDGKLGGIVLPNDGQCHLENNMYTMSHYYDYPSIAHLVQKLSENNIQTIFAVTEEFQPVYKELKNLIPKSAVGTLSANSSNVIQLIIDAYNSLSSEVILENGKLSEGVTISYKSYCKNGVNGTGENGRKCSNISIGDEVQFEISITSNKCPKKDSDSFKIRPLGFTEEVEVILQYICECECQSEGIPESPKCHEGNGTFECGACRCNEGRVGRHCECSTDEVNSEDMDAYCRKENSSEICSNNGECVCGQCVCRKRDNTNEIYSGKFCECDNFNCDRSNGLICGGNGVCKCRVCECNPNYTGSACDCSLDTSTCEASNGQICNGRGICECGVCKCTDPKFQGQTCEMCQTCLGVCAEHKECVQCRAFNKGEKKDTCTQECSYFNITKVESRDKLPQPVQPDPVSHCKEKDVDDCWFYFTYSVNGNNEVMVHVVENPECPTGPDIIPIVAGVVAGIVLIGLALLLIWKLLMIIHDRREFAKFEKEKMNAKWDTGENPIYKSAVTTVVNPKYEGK

On to `CCCCOc1cccc([C@H](CC(=O)O)NC(=O)Nc2c(O)c(C)cn(Cc3c(Cl)cccc3OCC)c2=O)c1`, for which the pIC50 (commonly the negative decadic logarithm of the IC50, by convention in mol/L) under setting [1] was 8.40. `O=C(Nc1cccn(Cc2cccs2)c1=O)NC(c1ccc2c(c1)OCO2)C(F)(F)C(=O)O` (stereo not drawn) [3-(1,3-benzodioxol-5-yl)-2,2-difluoro-3-[({[2-oxo-1-(2-thiophenylmethyl)-1,2-dihydro-3-pyridinyl]amino}carbonyl)amino]propanoic acid]: under “Table 4, 30 minutes at 37° C.”, the pIC50 is under 4.00.

As to `O=C(O)CC(NC(=O)Nc1c(O)ccn(Cc2ccccc2Cl)c1=O)c1ccc2ccccc2c1` (stereo not drawn) [3-[({[1-(2-chlorobenzyl)-4-hydroxy-2-oxo-1,2-dihydropyridin-3-yl]amino}carbonyl)amino]-3-(2-naphthyl)propanoic acid], the negative logarithm of the IC50 (pIC50) under setting [2] was 7.70.

In the case of `Cc1ccc([C@H](CC(=O)O)NC(=O)Nc2c(Nc3ccc(C(=O)O)cc3)ccn(Cc3ccccc3Cl)c2=O)cc1` [4-{[3-[({[(1S)-2-carboxy-1-(4-methylphenyl)ethyl]amino}carbonyl)amino]-1-(2-chlorobenzyl)-2-oxo-1,2-dihydropyridin-4-yl]amino}benzoic acid], the negative-log IC50 (pIC50) under setting [2] is 8.40.

As for `O=C(O)C[C@H](NC(=O)N1CCCCc2ccn(Cc3ccccc3)c(=O)c21)c1ccc2c(c1)OCO2` [(3S)-3-(1,3-benzodioxol-5-yl)-3-({[9-oxo-8-(phenylmethyl)-2,3,4,5,8,9-hexahydro-1H-pyrido[3,4-b]azepin-1-yl]carbonyl}amino)propanoic acid], the pIC50 (Table 3, 30 minutes at 37° C.) was 5.40. Take `O=C(O)C[C@H](NC(=O)Nc1cccn(CC2CCCC2)c1=O)c1ccc2c(c1)OCO2` [(3S)-3-(1,3-benzodioxol-5-yl)-3-[({[1-(cyclopentylmethyl)-2-oxo-1,2-dihydro-3-pyridinyl]amino}carbonyl)amino]propanoic acid]: under “Table 4, 30 minutes at 37° C.”, the pIC50 is 5.22. On to `O=C(O)C[C@H](NC(=O)Nc1cccn(Cc2cccs2)c1=O)c1ccc2c(c1)OCO2` [(3S)-3-(1,3-benzodioxol-5-yl)-3-[({[2-oxo-1-(2-thienylmethyl)-1,2-dihydro-3-pyridinyl]amino}carbonyl)amino]propanoic acid], for which the pIC50 (Table 2, 30 minutes at 37° C.) was 6.05. Turning to `CCCc1ccn(Cc2ccccc2)c(=O)c1NC(=O)N[C@@H](CC(=O)O)c1ccc2c(c1)OCO2` [(3S)-3-(1,3-benzodioxol-5-yl)-3-[({[2-oxo-1-(phenylmethyl)-4-propyl-1,2-dihydro-3-pyridinyl]amino}carbonyl)amino]propanoic acid], the negative logarithm of the IC50 (pIC50) (Table 3, 30 minutes at 37° C.) is 8.00. In the case of `O=C(O)C[C@H](NC(=O)N[C@H]1CCCN(Cc2cccs2)C1=O)c1ccc2c(c1)OCO2` [(3S)-3-(1,3-benzodioxol-5-yl)-3-[({[(3S)-2-oxo-1-(2-thienylmethyl)hexahydro-3-pyridinyl]amino}carbonyl)amino]propanoic acid], for the setting “Table 2, 30 minutes at 37° C.”, the negative logarithm of the IC50 (pIC50) is 6.70.

On to `O=C(O)C[C@H](NC(=O)N[C@H]1CCN(Cc2cccs2)C1=O)c1ccc2c(c1)OCO2` [(3S)-3-(1,3-benzodioxol-5-yl)-3-[({[(3S)-2-oxo-1-(2-thienylmethyl)tetrahydro-1H-pyrrol-3-yl]amino}carbonyl)amino]propanoic acid], for which, where the note is “Table 2, 30 minutes at 37° C.”, the pIC50 was 4.82. `CCCCOc1cccc([C@H](CC(=O)O)NC(=O)Nc2c(O)ccn(Cc3ccccc3Cl)c2=O)c1` [(3S)-3-(3-butoxyphenyl)-3-[({[1-(2-chlorobenzyl)-4-hydroxy-2-oxo-1,2-dihydropyridin-3-yl]amino}carbonyl)amino]propanoic acid]: the negative-log IC50 (pIC50) under setting [2] is 8.30. On to `Cc1ccc([C@H](CC(=O)O)NC(=O)Nc2c(O)c(C)cn(Cc3c(Cl)cccc3N3CCCCC3)c2=O)cc1` [(3S)-3-({[(1-{[2-chloro-6-tetrahydro-1(2H)-pyridinylphenyl]methyl}-4-hydroxy-5-methyl-2-oxo-1,2-dihydro-3-pyridinyl)amino]carbonyl}amino)-3-(4-methylphenyl)propanoic acid], for which the negative logarithm of the IC50 (pIC50) under setting [1] was 7.05. On to `COc1cc(OC)cc([C@H](CC(=O)O)NC(=O)Nc2c(O)ccn(Cc3ccccc3Cl)c2=O)c1` [(3S)-3-[3,5-bis(methyloxy)phenyl]-3-{[({1-[(2-chlorophenyl)methyl]-4-hydroxy-2-oxo-1,2-dihydro-3-pyridinyl}amino)carbonyl]amino}propanoic acid], for which the pIC50 (Table 3, 30 minutes at 37° C.) is 8.52.

In the case of `Cc1ccc([C@H](CC(=O)O)NC(=O)Nc2c(O)ccn(Cc3c(F)cccc3F)c2=O)cc1` [(3S)-3-[({[1-(2,6-difluorobenzyl)-4-hydroxy-2-oxo-1,2-dihydropyridin-3-yl]amino}carbonyl)amino]-3-(4-methylphenyl)propanoic acid], the negative logarithm of the IC50 (pIC50) under setting [2] is 8.10.

As for `COc1cccc(OC)c1Cn1ccc(O)c(NC(=O)N[C@@H](CC(=O)O)c2ccc(C)cc2)c1=O` [(3S)-3-[({[1-(2,6-dimethoxybenzyl)-4-hydroxy-2-oxo-1,2-dihydropyridin-3-yl]amino}carbonyl)amino]-3-(4-methylphenyl)propanoic acid], the negative logarithm of the IC50 (pIC50) under setting [2] is 8.00. `COc1ccc(Cl)c(Cn2cc(C)c(O)c(NC(=O)N[C@@H](CC(=O)O)c3ccc(C)cc3)c2=O)c1` [(3S)-3-[({[1-(2-chloro-5-methoxybenzyl)-4-hydroxy-5-methyl-2-oxo-1,2-dihydropyridin-3-yl]amino}carbonyl)amino]-3-(4-methylphenyl)propanoic acid]: the pIC50 under setting [1] was 8.52.

With `Cc1ccc([C@H](CC(=O)O)NC(=O)Nc2c(O)ccn(Cc3c(Cl)cccc3C#N)c2=O)cc1` [(3S)-3-[({[1-(2-chloro-6-cyanobenzyl)-4-hydroxy-2-oxo-1,2-dihydropyridin-3-yl]amino}carbonyl)amino]-3-(4-methylphenyl)propanoic acid], under setting [2], the negative-log IC50 (pIC50) is 8.15.

As to `CCOc1cccc([C@H](CC(=O)O)NC(=O)Nc2c(O)ccn(Cc3c(Cl)cccc3OCC)c2=O)c1` [(3S)-3-[({[1-(2-chloro-6-ethoxybenzyl)-4-hydroxy-2-oxo-1,2-dihydropyridin-3-yl]amino}carbonyl)amino]-3-(3-ethoxyphenyl)propanoic acid], the negative logarithm of the IC50 (pIC50) (Table 6, 30 minutes at 37° C.) was 8.52.

Regarding `CCOc1cccc(Cl)c1Cn1ccc(O)c(NC(=O)N[C@@H](CC(=O)O)c2cccc(OC(C)C)c2)c1=O` [(3S)-3-[({[1-(2-chloro-6-ethoxybenzyl)-4-hydroxy-2-oxo-1,2-dihydropyridin-3-yl]amino}carbonyl)amino]-3-(3-isopropoxyphenyl)propanoic acid], the pIC50 under setting [1] is 8.52. For the molecule `CCOc1cc(OCC)cc([C@H](CC(=O)O)NC(=O)Nc2c(O)c3c(n(Cc4c(Cl)cccc4OCC)c2=O)CCC3)c1` [(3S)-3-[({[1-(2-chloro-6-ethoxybenzyl)-4-hydroxy-2-oxo-2,5,6,7-tetrahydro-1H-cyclopenta[b]pyridin-3-yl]amino}carbonyl)amino]-3-(3,5-diethoxyphenyl)propanoic acid], the pIC50 under setting [1] was 8.52. For the molecule `CCCOc1cccc([C@H](CC(=O)O)NC(=O)Nc2c(O)c3c(n(Cc4c(Cl)cccc4OCC)c2=O)CCC3)c1` [(3S)-3-[({[1-(2-chloro-6-ethoxybenzyl)-4-hydroxy-2-oxo-2,5,6,7-tetrahydro-1H-cyclopenta[b]pyridin-3-yl]amino}carbonyl)amino]-3-(3-propoxyphenyl)propanoic acid], the pIC50 under setting [1] was 8.52. In the case of `CCOc1cccc(Cl)c1Cn1c2c(c(O)c(NC(=O)N[C@@H](CC(=O)O)c3cccc(OCC4CC4)c3)c1=O)CCC2` [(3S)-3-[({[1-(2-chloro-6-ethoxybenzyl)-4-hydroxy-2-oxo-2,5,6,7-tetrahydro-1H-cyclopenta[b]pyridin-3-yl]amino}carbonyl)amino]-3-[3-(cyclopropylmethoxy)phenyl]propanoic acid], the negative-log IC50 (pIC50) under setting [1] was 8.40. As for `CCOc1cccc(Cl)c1Cn1c2c(c(O)c(NC(=O)N[C@@H](CC(=O)O)c3cccc(OC4CC4)c3)c1=O)CCC2` [(3S)-3-[({[1-(2-chloro-6-ethoxybenzyl)-4-hydroxy-2-oxo-2,5,6,7-tetrahydro-1H-cyclopenta[b]pyridin-3-yl]amino}carbonyl)amino]-3-[3-(cyclopropyloxy)phenyl]propanoic acid], the negative logarithm of the IC50 (pIC50) under setting [1] is 8.70.

On to `CCOc1cccc(Cl)c1Cn1c2c(c(O)c(NC(=O)N[C@@H](CC(=O)O)c3ccccc3)c1=O)CCC2` [(3S)-3-[({[1-(2-chloro-6-ethoxybenzyl)-4-hydroxy-2-oxo-2,5,6,7-tetrahydro-1H-cyclopenta[b]pyridin-3-yl]amino}carbonyl)amino]-3-phenylpropanoic acid], for which the negative-log IC50 (pIC50) under setting [1] was 8.70. For `CCOc1cccc(Cl)c1Cn1c(C)c(C)c(O)c(NC(=O)N[C@@H](CC(=O)O)c2cccc(OC(C)C)c2)c1=O` [(3S)-3-[({[1-(2-chloro-6-ethoxybenzyl)-4-hydroxy-5,6-dimethyl-2-oxo-1,2-dihydropyridin-3-yl]amino}carbonyl)amino]-3-(3-isopropoxyphenyl)propanoic acid], the pIC50 under setting [1] was 8.52. Take `CCOc1cccc(Cl)c1Cn1cc(C)c(O)c(NC(=O)N[C@@H](CC(=O)O)c2ccc3c(ccn3C)c2)c1=O` [(3S)-3-[({[1-(2-chloro-6-ethoxybenzyl)-4-hydroxy-5-methyl-2-oxo-1,2-dihydropyridin-3-yl]amino}carbonyl)amino]-3-(1-methyl-1H-indol-5-yl)propanoic acid]: under setting [1], the pIC50 is 8.52. As to `CCOc1cccc(Cl)c1Cn1cc(C)c(O)c(NC(=O)N[C@@H](CC(=O)O)c2ccc3ccn(C)c3c2)c1=O` [(3S)-3-[({[1-(2-chloro-6-ethoxybenzyl)-4-hydroxy-5-methyl-2-oxo-1,2-dihydropyridin-3-yl]amino}carbonyl)amino]-3-(1-methyl-1H-indol-6-yl)propanoic acid], under setting [1], the pIC50 was 8.52.
